Results: a compilation of properties of binary mixtures (doi:10.1016/j.fluid.2021.113175)

Experiment: xn = mol fraction of the nth substance listed
Settings: 100 kPa

COP(=O)([O-])OC.C[N+]1(CCO)CCCC1 + CCO
viscosity [mPa·s]
Settings | 293.15 K | 298.15 K | 303.15 K | 308.15 K | 313.15 K | 318.15 K | 323.15 K | 328.15 K | 333.15 K | 338.15 K
x1 = 0.0561 | 2.69 | 2.27 | – | – | 1.54 | 1.33 | 1.17 | 1.04 | 0.92 | 0.82
x1 = 0.1077 | – | 4.39 | 3.88 | – | 3.23 | 2.94 | 2.69 | 2.47 | 2.28 | 2.1
x1 = 0.1523 | 7.31 | 6.71 | 6.24 | – | 5.31 | 4.98 | 4.66 | 4.37 | 4.09 | 3.85
x1 = 0.2079 | – | 10.91 | – | 8.65 | 7.87 | – | 6.44 | – | 5.33 | 4.93
x1 = 0.2537 | 19.2 | 16.9 | 14.81 | 13.08 | 11.56 | – | 9.55 | 8.62 | 8 | 7.27
x1 = 0.3084 | – | 27.7 | – | – | 18.5 | 16.22 | 14.35 | – | 11.68 | 10.55
x1 = 0.4033 | – | 48.5 | 40.2 | 34.3 | 30 | – | 22.9 | 20.3 | – | –
x1 = 0.5077 | – | 98.2 | – | 64.3 | 53.4 | – | – | 33.1 | 28 | –
x1 = 0.6042 | 220 | 174 | 133.8 | 108.1 | 87.6 | 72.1 | – | – | 42 | –
x1 = 0.7053 | – | – | 219 | 167 | 128.5 | 102.3 | 82.6 | 66.1 | – | 43.3
x1 = 0.8055 | 670 | – | 346 | 257 | 196 | 152.8 | 120.7 | 95 | 76.3 | –
x1 = 0.9053 | 1030 | 722 | 512 | 374 | – | 212 | 163 | 128.6 | 102.4 | 80.5
x1 = 1 | 1452 | 981 | 687 | 496 | 366 | – | 210 | 162 | 127.5 | 96.7
